Columns and labels:
TrXyn1 = target: T1, TrXyn1 (Trichoderma reesei, UniProt P36218); assay: birch wood xylan hydrolysis yield, reducing sugars by PAHBAH; assay type: biochemical; details: tested at 10, 100 and 1000 µg/ml; 1% xylan, 50 mM Na-citrate pH 5, 40 or 50 °C; concentration of the printed value not given
T1 construct: gene xyn1; natural single-domain GH11 enzyme, homologously produced and purified from T. reesei culture supernatant
T1 sequence (P36218 52-229): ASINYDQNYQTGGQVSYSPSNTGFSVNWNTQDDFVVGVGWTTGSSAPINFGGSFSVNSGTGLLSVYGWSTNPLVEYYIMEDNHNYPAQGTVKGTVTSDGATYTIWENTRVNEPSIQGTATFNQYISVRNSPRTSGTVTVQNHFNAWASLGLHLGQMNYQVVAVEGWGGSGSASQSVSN

TrXyn2 = target: T2, TrXyn2 (Trichoderma reesei, UniProt P36217); assay: as above; assay type: biochemical; details: tested at 10, 100 and 1000 µg/ml; 1% xylan, 50 mM Na-citrate pH 5, 40 or 50 °C
T2 construct: gene xyn2; natural single-domain GH11 enzyme, homologously produced and purified from T. reesei culture supernatant
T2 sequence (P36217 34-223): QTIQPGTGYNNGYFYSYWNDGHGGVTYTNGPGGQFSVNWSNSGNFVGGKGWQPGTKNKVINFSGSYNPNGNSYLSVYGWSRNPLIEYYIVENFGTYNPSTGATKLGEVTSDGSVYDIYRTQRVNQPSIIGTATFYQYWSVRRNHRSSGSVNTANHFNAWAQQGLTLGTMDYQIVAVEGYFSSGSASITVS

Compound: COc1cc(C=O)cc(OC)c1O [syringaldehyde]
- % reduction in the hydrolysis yield (TrXyn1): 50%
- reduction in hydrolysis yield (TrXyn2): only syringaldehyde showed a clear inhibitory effect on the hydrolysis for all the tested xylanases

Reference: publication PMC9107766, “Inhibitory effect of lignin on the hydrolysis of xylan by thermophilic and thermolabile GH11 xylanases” (Biotechnology for Biofuels and Bioproducts, 2022)
